In the supplement of paper PMC10307832:

Key:
Test in all cases: relative viability (nuclei count vs DMSO), 5 days (fraction); higher = more cells survive
[1] = compound: CN(c1ncccc1CNc1nc(Nc2ccc3c(c2)CC(=O)N3)ncc1C(F)(F)F)S(C)(=O)=O + COc1cc2c(Oc3ccc(NC(=O)C4(C(=O)Nc5ccc(F)cc5)CC4)cc3F)ccnc2cc1OCCCN1CCOCC1 [Foretinib] (partner 0.25 µM)
Procedure, shortened: (§1)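 The day after seeding in 1536-well plates, lung cancer cell lines were treated by pin tool with a single drug, or with a fixed anchor-drug dose together with five library-drug doses (not always all listed) in √10 steps. After 5 days, a combined fix-and-stain solution (final 0.05% Triton X-100, 1% formaldehyde, 1 ug/ml Hoechst) was added. Nuclei counted on 4× images gave relative viability as treated counts over vehicle counts, reported as the median of duplicate plates.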

[2] = compound: CN(c1ncccc1CNc1nc(Nc2ccc3c(c2)CC(=O)N3)ncc1C(F)(F)F)S(C)(=O)=O + Cc1nc(NC(=O)N2CCC[C@H]2C(N)=O)sc1-c1ccnc(C(C)(C)C(F)(F)F)c1 [Alpelisib] (partner 2 µM)
Procedure, shortened: as §1

[3] = compound: CN(c1ncccc1CNc1nc(Nc2ccc3c(c2)CC(=O)N3)ncc1C(F)(F)F)S(C)(=O)=O + Nc1nc2[nH]cc(CCc3ccc(C(=O)N[C@@H](CCC(=O)O)C(=O)O)cc3)c2c(=O)[nH]1 [Pemetrexed] (partner 0.2 µM)
Procedure, shortened: as §1

[4] = compound: CN(c1ncccc1CNc1nc(Nc2ccc3c(c2)CC(=O)N3)ncc1C(F)(F)F)S(C)(=O)=O + O=C(c1cc(Cc2n[nH]c(=O)c3ccccc23)ccc1F)N1CCN(C(=O)C2CC2)CC1 [Olaparib] (partner 8 µM)
Procedure, shortened: as §1

Cell Line	relative viability ([1]; first compound 0.01 µM)	relative viability ([1]; first compound 0.03162 µM)	relative viability ([1]; first compound 0.1 µM)	relative viability ([1]; first compound 0.3162 µM)	relative viability ([1]; first compound 1 µM)	relative viability ([2]; first compound 0.01 µM)	relative viability ([2]; first compound 0.03162 µM)	relative viability ([2]; first compound 0.1 µM)	relative viability ([2]; first compound 0.3162 µM)	relative viability ([2]; first compound 1 µM)	relative viability ([3]; first compound 0.01 µM)	relative viability ([3]; first compound 0.03162 µM)	relative viability ([3]; first compound 0.1 µM)	relative viability ([3]; first compound 0.3162 µM)	relative viability ([3]; first compound 1 µM)	relative viability ([4]; first compound 0.01 µM)	relative viability ([4]; first compound 0.03162 µM)	relative viability ([4]; first compound 0.1 µM)	relative viability ([4]; first compound 0.3162 µM)	relative viability ([4]; first compound 1 µM)
H3255	0.88	0.818	0.867	0.981	0.769	1.04	0.853	0.617	0.468	0.772	0.647	0.585	0.541	0.614	0.549	0.623	0.611	0.554	0.547	0.445
EPLC-272H	0.569	0.776	0.727	0.844	0.69	0.811	1.1	0.781	0.885	0.927	0.332	0.349	0.375	0.345	0.313	0.699	0.544	0.821	0.871	0.506
PC-3 [JPC-3]	1.07	1.03	0.999	1.04	0.929	0.993	1.14	0.941	1.02	0.952	1.02	–	1.13	1.07	1.18	1.13	–	1.05	1.08	1.04
NCI-H1793	0.58	0.641	0.667	0.449	0.523	0.77	0.765	0.611	0.674	0.659	1.05	0.912	0.934	0.919	0.931	0.88	0.685	0.777	0.948	0.769
EKVX	0.815	0.924	1.15	0.741	0.802	0.771	0.905	0.859	0.812	0.864	0.436	0.413	0.347	0.401	0.382	0.833	0.796	0.798	0.772	0.676
ChaGo-K-1	0.968	0.894	0.946	0.935	0.782	–	–	–	–	–	0.252	0.254	0.264	0.258	0.246	0.453	0.397	0.4	0.401	0.355
NCI-H23	0.914	1.08	1.08	1.06	0.861	0.668	0.84	0.727	0.692	0.56	0.691	0.618	0.779	0.62	0.605	0.337	0.345	0.389	0.319	0.306
EMC-BAC-2	0.933	1.18	0.989	0.944	0.943	0.761	0.811	0.68	0.698	0.676	0.427	0.471	0.433	0.472	0.45	0.508	0.495	0.488	0.464	0.464
LOU-NH91	0.945	1.02	0.88	1.04	0.999	0.75	0.792	0.703	0.771	0.762	0.423	0.368	0.375	0.382	0.338	0.888	0.92	0.883	0.972	0.858
